This is an account of results in paper PMC6685669, “Mapping the Structural Path for Allosteric Inhibition of a Short-Form ATP Phosphoribosyltransferase by Histidine” (Biochemistry, 2019).

Molecules are shown by their SMILES.

In test [1] the target is T1, PaATPPRT (Psychrobacter arcticus, UniProt Q4FQF7+Q4FTX3).
T1 construct: made in house
The format is biochemical. The conditions noted are these: ADP replacing ATP as substrate, 20 °C.
Protocol: Initial rates for PaATPPRT (0.28 μM) were determined at saturating concentrations of one substrate and varying concentrations of the other, either ADP (0.4–5.6 mM) or PRPP (0.1–2.0 mM).
Kinetic and DSF data were analyzed by the nonlinear regression function of SigmaPlot 13 (SPSS Inc.). Data points and error bars in graphs are represented as means ± the standard error, and kinetic and equilibrium constants are presented as means ± the fitting error. Substrate saturation data were fitted to eq 1. […]

Test [2] has as its target T1, PaATPPRT. As to the kind of experiment: PaATPPRT activity assay, initial rates (absorbance at 290 nm, PRATP formation), inhibition by histidine. The format is biochemical. The settings on record: for Kii: linear regression of intercept replot of individually fitted double-reciprocal curves. On the procedure:
All assays were performed under initial rate conditions in the forward direction at 20 °C, in the presence or absence of histidine, as previously described[20] by monitoring the increase in absorbance at 290 nm due to the formation of PRATP (ε290 = 3600 M^–1 cm^–1)[23] in 1 cm path length quartz cuvettes (Hellma) in a Shimadzu UV-2600 spectrophotometer. Unless stated otherwise, for PaHisGS activity, the PaHisGS concentration was typically 2 μM, and for PaATPPRT activity, PaHisGS and PaHisZ concentrations were 0.28 and 15 μM, respectively. Reactions were started by addition of PRPP. Control reaction mixtures lacked either ATP, PRPP, PaHisGS, or PaHisZ. […] Initial rates were also measured with saturating concentrations of both substrates in the presence or absence of 4 mM TIH. All kinetic measurements were performed at least in duplicate unless stated otherwise.
The half-maximal inhibitory concentration of histidine was determined by measuring the initial rates for PaATPPRT (0.24 μM) in the presence of 5.6 mM ATP (or 5.6 mM ADP), 2 mM PRPP, and varying concentrations of histidine (0–320 μM). The inhibition mechanism was investigated by measuring the initial rates for PaATPPRT (0.28 μM) at saturating concentrations of one substrate and varying concentrations of the other, either ATP (0.2–2.8 mM) or PRPP (0.1–2.0 mM), with different concentrations of histidine (0–10 μM). In some instances, the lowest-concentration data point was an outlier in the double-reciprocal plot and was excluded from the fit.
Kinetic and DSF data were analyzed by the nonlinear regression function of SigmaPlot 13 (SPSS Inc.). Data points and error bars in graphs are represented as means ± the standard error, and kinetic and equilibrium constants are presented as means ± the fitting error. Substrate saturation data were fitted to eq 1. Inhibition data at fixed substrate concentrations were fitted to eq 2, and inhibition mechanism data were fitted to eq 3. In eqs 1–3, v is the initial rate, S is the concentration of the varying substrate, kcat is the steady-state turnover number, KM is the apparent Michaelis constant, ET is total enzyme concentration, vi is the initial rate in the presence of an inhibitor, IC50 is the half-maximal inhibitory concentration, h is the Hill slope, Kis is the slope inhibition constant, and Kii is the intercept inhibition constant. DSF thermal denaturation data were fitted to eq 4,[30] and PaHisZ–histidine complex equilibrium dissociation data were fitted to eq 5. In eqs 4 and 5, FU is the fraction unfolded, T is the temperature in degrees Celsius, Tm is the melting temperature, c is the slope of the transition region, LL and UL are folded and unfolded baselines, respectively, Tm0 is the Tm in the absence of histidine, Tm∞ is the Tm at an infinite histidine concentration, H is the histidine concentration, and KD is the apparent equilibrium dissociation constant for the PaHisZ–histidine complex.

For test [3], the target named is T1, PaATPPRT. In words: Rapid kinetics (stopped-flow), approach to steady state in the PaATPPRT reaction. The format is biochemical. On the procedure:
Rapid kinetics experiments were carried out under multiple-turnover conditions by monitoring the increase in absorbance at 290 nm upon PRATP formation at 20 °C in an Applied Photophysics SX-20 stopped-flow spectrophotometer outfitted with a 5 μL mixing cell (0.5 cm path length and 0.9 ms dead time). In all experiments, each syringe contained 100 mM tricine (pH 8.5), 100 mM KCl, 4 mM DTT, 15 mM MgCl2, and 10 μM MtPPase. For the approach to steady state in the PaATPPRT reaction, one syringe carried 38 μM PaATPPRT, 4 mM PRPP, and either 0 or 60 μM histidine, while the other carried 7 mM ATP and either 0 or 60 μM histidine. Reaction was triggered by rapidly mixing 55 μL from each syringe. The increase in absorbance was monitored in a split-time base for 1 s, with 2500 data points collected before 0.2 s and 2500 in the following 0.8 s. At least four traces were acquired for each reaction, and controls lacked PRPP. For initial rates of PaATPPRT and PaHisGS reactions, one syringe carried either 2–4 μM PaHisGS or 4 μM PaATPPRT, 4 mM PRPP, and either 0 or 1.28 mM histidine, while the other carried 11.2 mM ATP. Reaction was triggered by rapidly mixing 55 μL from each syringe. The increase in absorbance was monitored in a linear-time base for 10 s. At least four traces were acquired for each reaction, with 1000 data points collected per trace. Controls lacked PRPP.

The test system of another test is PaHisGS. More on the design: method as in PMID 28092443. The conditions noted are these: PaHisGS in the absence of PaHisZ; cited from earlier work.
The target in another test is T2, PaHisZ (Psychrobacter arcticus, UniProt Q4FTX3).
T2 construct: made in house
T2 sequence (Q4FTX3 whole entry): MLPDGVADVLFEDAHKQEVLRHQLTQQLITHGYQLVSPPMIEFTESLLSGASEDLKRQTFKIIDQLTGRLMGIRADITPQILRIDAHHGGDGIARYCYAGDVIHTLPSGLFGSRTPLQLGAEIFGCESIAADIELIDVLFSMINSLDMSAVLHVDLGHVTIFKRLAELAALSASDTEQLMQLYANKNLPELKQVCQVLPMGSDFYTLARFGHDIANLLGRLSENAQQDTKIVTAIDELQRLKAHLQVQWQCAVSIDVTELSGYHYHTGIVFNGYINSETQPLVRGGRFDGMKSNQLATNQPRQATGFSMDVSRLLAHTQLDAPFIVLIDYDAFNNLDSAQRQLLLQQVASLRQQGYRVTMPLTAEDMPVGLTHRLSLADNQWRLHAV
In words: Differential scanning fluorimetry (DSF), thermal denaturation of PaHisZ. The format is binding. On the procedure:
DSF measurements (λex = 490 nm; λem = 610 nm) were performed in 96-well plates on a Stratagene Mx3005p instrument. Thermal denaturation of 9.4 μM PaHisZ was assayed (50 μL) in the presence of several histidine concentrations (0–8 mM) in 100 mM tricine, 100 mM KCl, 4 mM DTT, and 15 mM MgCl2 (pH 8.5). Sypro Orange (5×) (Invitrogen) was added to all wells. Thermal denaturation curves were recorded over a temperature range of 25–65 °C with 1 °C min^–1 increments. Control curves without the enzyme and were subtracted from curves with the enzyme. All measurements were carried out in quintuplicate.
Kinetic and DSF data were analyzed by the nonlinear regression function of SigmaPlot 13 (SPSS Inc.). Data points and error bars in graphs are represented as means ± the standard error, and kinetic and equilibrium constants are presented as means ± the fitting error. Substrate saturation data were fitted to eq 1. Inhibition data at fixed substrate concentrations were fitted to eq 2, and inhibition mechanism data were fitted to eq 3. […]

In another test the target is T3, Y263F-PaATPPRT (Psychrobacter arcticus, UniProt Q4FQF7+Q4FTX3, Y263F).
T3 construct: made in house
T3 sequence (Q4FQF7 whole entry): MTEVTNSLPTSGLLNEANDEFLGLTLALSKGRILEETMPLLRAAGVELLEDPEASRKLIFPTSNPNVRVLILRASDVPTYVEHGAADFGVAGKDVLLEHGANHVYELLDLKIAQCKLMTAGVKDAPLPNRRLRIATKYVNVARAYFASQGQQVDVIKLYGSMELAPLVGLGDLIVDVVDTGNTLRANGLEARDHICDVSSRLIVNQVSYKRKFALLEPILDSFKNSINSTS
T3 sequence (Q4FTX3 whole entry Y263F): as the sequence (Q4FTX3 whole entry) above, with Y263F counted along it
As to the kind of experiment: Y263F-PaHisZ-based PaATPPRT activity assay, initial rates with and without histidine. The format is biochemical. An excerpt: Replacement of tyrosine for phenylalanine at position 263 of PaHisZ was accomplished by the method of Liu and Naismith,[29] with primers 5′-[…]-3′ and 5′-[…]-3′. Successful mutation was confirmed by DNA sequencing (Eurofins Genomics). Y263F-PaHisZ was expressed and purified by the same protocol reported for wild-type (WT) PaHisZ.[20] ESI/MS analysis of the protein yielded a mass of 43068.9, exactly what would be expected by the loss of a hydroxyl group when compared with the mass of WT-PaHisZ.[20] Y263F-PaHisZ-based PaATPPRT was assayed for catalytic activity under initial rate conditions at 20 °C in the presence of 5.6 mM ATP and 2 mM PRPP and in the presence or absence of 320 μM histidine, along with other reaction components exactly as described for WT-PaATPPRT. Measurements were carried out in duplicate.

[4] abbreviates: ATP and histidine (60 μM in syringe) rapidly mixed with PaATPPRT preincubated with PRPP.
[5] abbreviates: ATP rapidly mixed with PaATPPRT preincubated with PRPP and histidine (60 μM in syringe).

T1 sequence (Q4FTX3 whole entry): as the sequence (Q4FTX3 whole entry) above
T1 sequence (Q4FQF7 whole entry): as the sequence (Q4FQF7 whole entry) above

For the molecule `Nc1ncnc2c1ncn2[C@@H]1O[C@H](COP(=O)(O)OP(=O)(O)O)[C@@H](O)[C@H]1O` [ADP, adenosine 5′-diphosphate], at PaATPPRT [1], the kcat is 2.6 ± 0.4 s^–1.
As a reminder, the IC50 is the point on the concentration scale where inhibition reaches its midpoint. Read a low IC50 as greater potency. By Ki is commonly meant the equilibrium dissociation constant of an inhibitor or competing ligand from its target. A higher Ki goes with a looser hold on the target. A word on the inhibition: it is the relative decrease from the control value, in per cent. As to `N[C@@H](Cc1c[nH]cn1)C(=O)O` [Histidine, L-histidine], the “h (Hill slope)” value on PaATPPRT [2] (5.6 mM ATP, 2 mM PRPP, 20 °C, fit to eq 2) amounted to 1.30 ± 0.04; on PaATPPRT [2] (ADP (5.6 mM) as the substrate, 2 mM PRPP), 1.32 ± 0.09. The IC50 came to 35.5 ± 0.8 µM against PaATPPRT [2] (IC50, 5.6 mM ATP, 2 mM PRPP, 20 °C, fit to eq 2) and 31 ± 1 µM on PaATPPRT [2] (IC50, ADP (5.6 mM) as the substrate, 2 mM PRPP). Further, the Ki on PaATPPRT [2] (Kis (slope inhibition constant), against ATP, global fit to eq 3) came to 56 ± 25 µM; on PaATPPRT [2] (Kis (slope inhibition constant), against PRPP, global fit to eq 3) it was 22 ± 6 µM; on PaATPPRT [2] (Kis, against ATP, linear regression of slope replot of individually fitted double-reciprocal curves), 60 µM; on PaATPPRT [2] (Kis, against PRPP, linear regression of slope replot of individually fitted double-reciprocal curves) it was 30 µM. Further, the “vi/v0 (ratio of initial rates in presence and absence of inhibitor)” value on PaATPPRT [2] (WT-PaATPPRT, 320 μM histidine, 5.6 mM ATP, 2 mM PRPP, 20 °C) is listed as 0.070 ± 0.004; on Y263F-PaATPPRT (320 μM histidine, 5.6 mM ATP, 2 mM PRPP, 20 °C) it was 0.250 ± 0.001. Besides, the “Kii (intercept inhibition constant)” value came out at 36 ± 5 µM on PaATPPRT [2] (against ATP, global fit to eq 3) and 38 ± 7 µM at PaATPPRT [2] (against PRPP, global fit to eq 3). Also, the Kii on PaATPPRT [2] (against ATP) was found to be 40 µM; at PaATPPRT [2] (against PRPP), 26 µM. Also, at PaATPPRT [2] (against both substrates (PRPP and ATP)), the inhibition mechanism entry is on record as “noncompetitive”. The “amplitude of the burst phase” value at PaATPPRT [3] (setting [4]) came to 3.49 ± 0.01 µM. The results for the steady-state rate on PaATPPRT [3] (setting [4]) and at PaATPPRT [3] (setting [5]) were 7.56 ± 0.01 μM s^–1 and 7.83 ± 0.01 μM s^–1, respectively. For the same molecule, on PaATPPRT [3] (setting [5]), the burst amplitude was found to be 0.53 ± 0.01 µM. Also, the “sensitivity of PaHisGS to histidine” value in the test on PaHisGS is recorded as “insensitive”. Also, the Kd on PaHisZ (free PaHisZ 9.4 μM, Tm dependence on histidine 0–8 mM, fit to eq 5, read-out: KD (apparent equilibrium dissociation constant, PaHisZ–histidine complex)) came to 2800 ± 800 µM. Moreover, the “effect on Tm of PaHisZ” value on PaHisZ (free PaHisZ, histidine 0–8 mM) is reported as “increases”. Besides, the “susceptibility to inhibition, Y263F-PaATPPRT less susceptible than WT-PaATPPRT” value on Y263F-PaATPPRT (320 μM histidine, from vi/v0 of mutant and WT) is on record as more than 3 fold. For the same molecule, on Y263F-PaATPPRT (read-out: enzyme activity lost due to histidine inhibition), the inhibition at 320 µM was 75%.
`N[C@@H](Cc1cccs1)C(=O)O` [TIH, 3-(2-thienyl)-L-alanine]: the “effect on PaATPPRT catalysis” value on PaATPPRT [2] (4 mM TIH, saturating concentrations of both substrates) is “no effect”.
